Source: publication PMC12257540, “From Inhibitors to PET: SAR-Based Development of [^18F]SK60 for mIDH1 Imaging” (Journal of Medicinal Chemistry, 2025)

What was measured:
[1] = PET-based biodistribution in naïve mice
Description: (§3) For the time of the experiments, female CD-1 mice (n = 4; 8–10 weeks; 37–40 g) were kept in a dedicated climatic chamber with free access to water and food under a 12:12 h dark: light cycle at a constant temperature (24 °C). The animals were anesthetized (Anaesthesia Unit U-410, agntho’s, Lidingö, Sweden) with isoflurane (2.0%, 300 mL/min) delivered in a 20% oxygen/80% air mixture (Gas Blender 100 Series, MCQ instruments, Rome, Italy) and their body temperature maintained at 37 °C with a thermal bed system. […] Each PET image was corrected for random coincidences, dead time, scatter, and attenuation (AC) based on a whole body (WB) MR scan. The reconstruction parameters for the list mode data were 3D-ordered subset expectation maximization (OSEM), 4 iterations, 6 subsets, energy window: 400–600 keV, coincidence mode: 1–5, ring difference: 81. The PET data were collected by a continuous WB scan during the entire investigation. […] The brain region was identified using the mouse brain atlas template Ma-Benveniste-Mirrione-FDG. The activity data are expressed as the SUVmean of the overall ROI.

IDH1-U251 cells = assay: In vitro cell uptake of [18F]SK60 in IDH1-U251 cells; assay type: cell-based, Human; details: 240 min incubation
Description: (§1) Human U251 glioblastoma cells, stably transfected and overexpressing either wild-type IDH1 (IDH1-U251) or IDH1R132H (IDH1R132H–U251), were obtained from Jaqueline Kessler and Dirk Vordermark (Department of Radiotherapy, Martin Luther University Halle-Wittenberg, Halle/Saale, Germany). Cells were grown in RPMI 1640 medium (10% FCS), supplemented with puromycin, to ensure the cultivation of transfected cells only.
(§2) The IDH1-U251 and IDH1R132H–U251 cells were seeded at 4,00,000 cells/mL in a 24-well cell culture plate 1 day before the experiment. The medium was replaced by 400 μL/well, and 4 μL of a 100-x stock solution of the respective inhibitor in 10% DMSO or vehicle (10% DMSO) was added about 2 h before the experiment. The experiment was started with the addition of 100 μL of [ ^ 18 F]-SK60 (0.477 ± 0.002 MBq/mL; 4.86 ± 0.33 nM) diluted in cell culture medium per well, and the well plates were incubated in a humidified-air atmosphere incubator containing 5% CO2 at 37 °C for various times. The incubation was stopped by aspiration of the supernatant and washing the cell layers twice with prechilled PBS (500 μL/well). […] The concentrations of surface-bound and internalized activities per well were calculated as a percentage of the applied dose per well and normalized to the protein concentration per well (% AD/μg protein). […]

P-gp efflux transporter = P-gp efflux transporter (Mus musculus, UniProt P21447); assay: Efflux transporter P-gp substrate study (PET, cyclosporine A pretreatment); details: cyclosporine A 50 mg/kg i.v. 30 min before radioligand
P-gp efflux transporter, sequence (P21447 whole entry): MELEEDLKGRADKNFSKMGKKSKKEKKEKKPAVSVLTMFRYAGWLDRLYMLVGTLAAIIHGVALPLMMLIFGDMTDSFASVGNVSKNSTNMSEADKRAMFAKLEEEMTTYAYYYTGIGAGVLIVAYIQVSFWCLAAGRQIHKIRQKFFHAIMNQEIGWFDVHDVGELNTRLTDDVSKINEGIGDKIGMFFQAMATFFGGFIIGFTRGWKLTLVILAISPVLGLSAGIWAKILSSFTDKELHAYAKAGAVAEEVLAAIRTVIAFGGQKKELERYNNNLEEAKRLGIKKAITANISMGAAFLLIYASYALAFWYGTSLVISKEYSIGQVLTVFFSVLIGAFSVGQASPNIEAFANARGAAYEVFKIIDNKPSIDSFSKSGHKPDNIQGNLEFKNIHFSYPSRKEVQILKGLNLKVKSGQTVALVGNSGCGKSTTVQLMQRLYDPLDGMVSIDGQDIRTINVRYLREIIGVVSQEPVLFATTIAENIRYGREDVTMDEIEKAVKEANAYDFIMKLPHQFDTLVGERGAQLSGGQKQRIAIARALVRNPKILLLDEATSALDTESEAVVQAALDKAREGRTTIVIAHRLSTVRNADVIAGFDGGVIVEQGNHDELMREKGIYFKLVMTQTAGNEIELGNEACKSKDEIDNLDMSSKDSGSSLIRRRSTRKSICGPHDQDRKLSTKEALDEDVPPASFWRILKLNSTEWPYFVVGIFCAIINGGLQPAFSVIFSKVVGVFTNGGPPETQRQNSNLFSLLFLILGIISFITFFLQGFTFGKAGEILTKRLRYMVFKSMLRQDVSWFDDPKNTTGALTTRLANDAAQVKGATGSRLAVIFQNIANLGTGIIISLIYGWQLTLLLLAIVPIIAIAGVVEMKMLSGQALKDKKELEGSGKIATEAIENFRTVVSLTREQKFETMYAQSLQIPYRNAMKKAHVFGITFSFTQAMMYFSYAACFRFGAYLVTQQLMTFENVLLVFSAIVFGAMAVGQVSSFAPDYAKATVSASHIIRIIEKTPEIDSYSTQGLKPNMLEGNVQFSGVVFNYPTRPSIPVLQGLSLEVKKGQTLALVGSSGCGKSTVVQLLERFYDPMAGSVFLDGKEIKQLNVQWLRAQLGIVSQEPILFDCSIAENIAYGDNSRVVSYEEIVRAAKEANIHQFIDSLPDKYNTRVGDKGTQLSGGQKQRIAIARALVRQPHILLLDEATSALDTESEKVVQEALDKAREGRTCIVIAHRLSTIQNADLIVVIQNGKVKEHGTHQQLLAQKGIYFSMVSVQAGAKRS
Description: To investigate the role of P-gp, mice were treated with cyclosporine A, an inhibitor of the P-gp efflux transporter.
as §3

[2] = logD7.4 by shake-flask method (n-octanol/PBS); assay type: physicochemical; details: n-octanol/PBS pH 7.4, n = 4
Description: The logD 7.4 value of [ ^ 18 F]-SK60 was experimentally determined by the conventional shake-flask method using n-octanol and PBS as the partition system.
The two phases were presaturated with each other. A solution of the radiotracer (10 μL, 1.1 MBq) was added to a 15 mL plastic centrifuge tube containing n-octanol (3 mL) and PBS (3 mL). The tube was vortexed for 3 min and centrifuged at 3500 rpm for 5 min (Anke TDL80–2B, China). […] The logD 7.4 was determined as the ratio of cpm/mL of the n-octanol layer to that of the buffer layer. Samples from the n-octanol layer were redistributed until consistent distribution coefficient values were obtained. The measurement was carried out in triplicate and repeated three times.

[3] = tested on: IDH1R132H-U251 cells (target-positive) and IDH1-U251 cells (target-negative); assay: Real-time radioligand binding (LigandTracer) to live U251 cells; set-up: species or system Human; details: room temperature, medium without or with 5 % BSA
Description: Real-time radioligand binding
Real-time radioligand binding using LigandTracer®
The LigandTracer (LigandTracer Yellow, Ridgeview Instruments AB, Uppsala, Sweden) system allows assessment of binding kinetics (association rate constant ka and dissociation rate constant kd) and therefore dissociation constant (KD).
Briefly, target-positive/-negative cells are seeded to different quadrants of a petri dish (Thermo Scientific Nunclon Delta #150350). Here, approximately 5x10^4 target-positive cells (IDH1R132H-U251 cells) and target-negative cells (IDH1-U251 cells) were seeded in a ~20 mm round spot (0.5 mL of a solution of 1x10^5 cells/mL), three days before the experiment. […]
The culture medium is removed and replaced with 3 mL CO2-independent medium (Gibco #18045088, ThermoFisher Germany) without or with bovine serum albumin (BSA) (5 %; #3737.3, Carl Roth GmbH, Karlsruhe, Germany). In the instrument, the dish rotates on an inclined base, where cells in medium (3 mL) are located on one side, while radioactivity is detected on the opposite side. This allows continuous measurements of two or more alternating parts of the dish for bound radioactivity (e.g. target-positive) against background (e.g. no cells) or target-negative cells. […]
Data was acquired in decay-corrected counts per second (CPS) and subsequently analyzed using TraceDrawer (1.9.2, Ridgeview Instruments AB, Uppsala, Sweden). […]

IDH1R132H–U251 cells = assay: In vitro cell uptake of [18F]SK60 in IDH1R132H-U251 cells; assay type: cell-based, Human; details: 240 min incubation
Description: as §1, §2

## Cc1cccc(NC(=O)c2nn(Cc3ccc([18F])cc3)c3c2CN(C(=O)c2ccc[nH]2)CC3(C)C)c1 [[18F]SK60]
[1]; PET, gallbladder, 30 min, n = 2
  accumulation in gallbladder: 60 SUVmean
[1]; PET, liver, 30 min, n = 2
  accumulation in liver: 1.6 SUVmean
[1]; brain, 15 min p.i.
  brain uptake: ~0.3 SUVmean
IDH1-U251 cells
  internalized radioligand: 0.074 ± 0.023 % AD/μg protein
  surface-bound radioligand: 0.052 ± 0.029 % AD/μg protein
P-gp efflux transporter
  increase of brain uptake after cyclosporine A compared to vehicle: approximately 2.5 fold
[2]
  logD: 2.3 ± 0.5
[3]
  real-time radioligand binding to live cells: Reliable binding of [18F]SK60 could not be observed
IDH1R132H–U251 cells
  internalized radioligand: 0.089 ± 0.02 % AD/μg protein
